Experimental data taken from patent publication US11236069B2, “KIF18A inhibitors” (AMGEN INC., priority 2018, dated 2022).
Read-outs that look alike come from different tables or passages of the source.

Biological target: Recombinant human KIF18A (1-467 His-tagged) protein (Homo sapiens (Human), UniProt Q8NI77)
Assay: KIF18A Enzyme Assay: microtubule-stimulated ATPase activity (ADP-Glo)
Settings: read-out: KIF18A ATPase IC50
[1] = 30 nM KIF18A, 30 μg/mL pig microtubules, ATP at Km 75 μM, ADP-Glo luminescence

Chain of Recombinant human KIF18A (1-467 His-tagged) protein (Q8NI77 1-467): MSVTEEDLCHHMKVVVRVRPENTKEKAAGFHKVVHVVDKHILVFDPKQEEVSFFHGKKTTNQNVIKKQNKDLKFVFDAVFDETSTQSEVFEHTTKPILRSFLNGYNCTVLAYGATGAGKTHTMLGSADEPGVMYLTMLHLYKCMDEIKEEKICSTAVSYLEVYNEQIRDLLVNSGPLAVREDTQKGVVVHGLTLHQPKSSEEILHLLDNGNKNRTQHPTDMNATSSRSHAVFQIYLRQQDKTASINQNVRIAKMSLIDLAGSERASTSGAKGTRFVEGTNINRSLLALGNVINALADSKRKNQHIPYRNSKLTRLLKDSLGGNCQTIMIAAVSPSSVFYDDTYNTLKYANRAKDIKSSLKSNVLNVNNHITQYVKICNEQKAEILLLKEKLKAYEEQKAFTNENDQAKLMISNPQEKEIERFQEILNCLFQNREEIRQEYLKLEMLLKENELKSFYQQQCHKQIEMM
Chain of Recombinant human KIF18A (1-467 His-tagged) protein (P02550 whole entry partner): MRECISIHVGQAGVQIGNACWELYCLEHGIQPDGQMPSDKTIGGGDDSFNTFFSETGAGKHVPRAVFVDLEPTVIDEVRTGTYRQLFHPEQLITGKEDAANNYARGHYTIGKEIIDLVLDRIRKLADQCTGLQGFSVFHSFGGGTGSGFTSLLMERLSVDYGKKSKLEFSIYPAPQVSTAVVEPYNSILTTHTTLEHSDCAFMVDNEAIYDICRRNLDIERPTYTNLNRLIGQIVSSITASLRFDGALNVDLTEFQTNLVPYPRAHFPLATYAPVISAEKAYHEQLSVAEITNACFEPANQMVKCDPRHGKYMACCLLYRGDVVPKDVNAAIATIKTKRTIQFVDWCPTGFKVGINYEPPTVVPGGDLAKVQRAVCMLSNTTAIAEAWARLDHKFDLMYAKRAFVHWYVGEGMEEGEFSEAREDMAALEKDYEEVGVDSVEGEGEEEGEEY
Chain of Recombinant human KIF18A (1-467 His-tagged) protein (P02554 whole entry partner): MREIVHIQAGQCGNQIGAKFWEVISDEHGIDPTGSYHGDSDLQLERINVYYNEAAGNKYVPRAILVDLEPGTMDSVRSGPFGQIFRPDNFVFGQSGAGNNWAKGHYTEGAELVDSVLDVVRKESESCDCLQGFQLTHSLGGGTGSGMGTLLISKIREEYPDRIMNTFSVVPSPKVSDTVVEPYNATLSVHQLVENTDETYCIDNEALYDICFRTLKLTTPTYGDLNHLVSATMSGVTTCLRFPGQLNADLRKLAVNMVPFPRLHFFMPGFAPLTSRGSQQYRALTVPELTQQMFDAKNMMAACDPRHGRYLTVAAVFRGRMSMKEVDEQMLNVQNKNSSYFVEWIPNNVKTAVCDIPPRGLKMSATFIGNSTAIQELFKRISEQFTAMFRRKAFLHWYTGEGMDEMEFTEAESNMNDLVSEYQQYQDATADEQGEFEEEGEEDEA
Excerpt: KIF18A Enzyme Assay: Microtubule-stimulated ATPase activity assay is used to measure KIF18A enzyme activity after treatment with compound. Compounds were 2-fold serially diluted in DMSO (Sigma Inc) over 22-point concentration range. […] The assay measures ADP formed from the ATPase reaction.

| Compound | IC50 [1] | IC50 |
| --- | --- | --- |
| Cc1cc(NC(=O)c2ccc(NS(=O)(=O)CCO)cc2N2CCC3(CC2)CC3)nc(N2CC(C#N)C2)n1 [Example 11-13, N-(2-(3-Cyanoazetidin-1-yl)-6-methylpyrimidin-4-yl)-4-((2-hydroxyethyl)sulfonamido)-2-(6-azaspiro[2.5]octan-6-yl)benzamide] | 67 nM | – |
| Cc1cc(NC(=O)c2ccc(S(=O)(=O)N[C@H](C)CO)cc2N2CCC3(CC2)CC3)nc(N2CCC(F)(F)CC2)n1 [Example 17-6, (R)-N-(2-(4,4-Difluoropiperidin-1-yl)-6-methylpyrimidin-4-yl)-4-(N-(1-hydroxypropan-2-yl)sulfamoyl)-2-(6-azaspiro[2.5]octan-6-yl)benzamide] | 127 nM | – |
| Cc1cc(NC(=O)c2ccc(NS(=O)(=O)CCO)cc2N2CCC3(CC2)CC3)nc(N2CCC2)n1 [Example 11-19, N-(2-(Azetidin-1-yl)-6-methylpyrimidin-4-yl)-4-((2-hydroxyethyl)sulfonamido)-2-(6-azaspiro[2.5]octan-6-yl)benzamide] | 205 nM | – |
| O=C(Nc1ccnc(N2CCC(F)(F)CC2)c1)c1ccc(NS(=O)(=O)CCO)cc1N1CCC2(CC1)CC2 [Example 6-29, N-(2-(4,4-Difluoropiperidin-1-yl)pyridin-4-yl)-4-((2-hydroxyethyl)sulfonamido)-2-(6-azaspiro[2.5]octan-6-yl)benzamide] | 17 nM | – |
| Cc1cc(NC(=O)c2ccc(NS(=O)(=O)[C@@H](C)CO)cc2N2CCC3(CC2)CC3)nc(N2CCC(F)CC2)n1 [Example 6-25-1, (S)-N-(2-(4-fluoropiperidin-1-yl)-6-methylpyrimidin-4-yl)-4-((2-hydroxy-1-methylethyl)sulfonamido)-2-(6-azaspiro[2.5]octan-6-yl)benzamide] | 47 nM | – |
| Cc1cc(NC(=O)c2ccc(NS(=O)(=O)CCO)cc2N2CCC3(CC2)CC3)nc(N2CCC3(CC2)CC3)n1 [Example 11-31, 4-((2-Hydroxyethyl)sulfonamido)-N-(6-methyl-2-(6-azaspiro[2.5]octan-6-yl)pyrimidin-4-yl)-2-(6-azaspiro[2.5]octan-6-yl)benzamide] | 146 nM | – |
| Cc1cc(NC(=O)c2ccc(NS(=O)(=O)C[C@H](C)O)cc2N2CCC3(CC2)CC3)nc(OCCC(F)(F)F)n1 [Example 6-28-2, (S)-4-((2-Hydroxypropyl)sulfonamido)-N-(6-methyl-2-(3,3,3-trifluoropropoxy)pyrimidin-4-yl)-2-(6-azaspiro[2.5]octan-6-yl)benzamide] | 71 nM | – |
| Cc1cc(NC(=O)c2ccc(NS(=O)(=O)[C@H](C)CO)cc2N2CCC3(CC2)CC3)nc(N2CCC(F)(F)CC2)n1 [Example 5-1, (R)-N-(2-(4,4-Difluoropiperidin-1-yl)-6-methylpyrimidin-4-yl)-4-((2-hydroxy-1-methylethyl)sulfonamido)-2-(6-azaspiro[2.5]octan-6-yl)benzamide] | – | 62 nM |
| Cc1cc(NC(=O)c2ccc([S@](=N)(=O)C3CC3)cc2N2CCC3(CC2)CC3)nc(N2CCC(F)(F)CC2)n1 (single isomer, unassigned) [Example 18-1, 2-(6-Azaspiro[2.5]octan-6-yl)-4-(R-cyclopropylsulfonimidoyl)-N-(2-(4,4-difluoro-1-piperidinyl)-6-methyl-4-pyrimidinyl)benzamide] | 64 nM | – |
| Cc1cc(NC(=O)c2ccc(NS(=O)(=O)C[C@H](C)O)cc2N2CCC3(CC2)CC3)nc(N2CC(F)(F)C2)n1 (single isomer, unassigned) [Example 10-2] | 73 nM | – |
| C[C@@H](CO)S(=O)(=O)Nc1ccc(C(=O)Nc2ccnc(N3CCC(F)(F)CC3)n2)c(N2CCC3(CC2)CC3)c1 [Example 6-26-1, (S)-N-(2-(4,4-Difluoropiperidin-1-yl)pyrimidin-4-yl)-4-((2-hydroxy-1-methylethyl)sulfonamido)-2-(6-azaspiro[2.5]octan-6-yl)benzamide] | 31 nM | – |
| Cc1cc(NC(=O)c2ccc(NS(=O)(=O)CCO)cc2N2CCC3(CC2)CC3)cc(N2CCC(F)(F)CC2)n1 [Example 6-30, N-(2-(4,4-Difluoropiperidin-1-yl)-6-methylpyridin-4-yl)-4-((2-hydroxyethyl)sulfonamido)-2-(6-azaspiro[2.5]octan-6-yl)benzamide] | 38.4 nM | – |
| Cc1cc(NC(=O)c2ccc(S(=O)(=O)N[C@@H](C)CO)cc2N2CCC3(CC2)CC3)nc(N2CCC(F)(F)CC2)n1 [Example 17-7, (S)-N-(2-(4,4-Difluoropiperidin-1-yl)-6-methylpyrimidin-4-yl)-4-(N-(1-hydroxypropan-2-yl)sulfamoyl)-2-(6-azaspiro[2.5]octan-6-yl)benzamide] | 147 nM | – |
| Cc1cc(NC(=O)c2ccc(NS(C)(=O)=O)cc2N2CCC3(CC2)CC3)nc(N2CC(F)(F)C2)n1 [Example 11-24, N-(2-(3,3-Difluoroazetidin-1-yl)-6-methylpyrimidin-4-yl)-4-(methylsulfonamido)-2-(6-azaspiro[2.5]octan-6-yl)benzamide] | 55.1 nM | – |

The next lines start with results.

| IC50 [1] | Compound | IC50 |
| --- | --- | --- |
| 135 nM | Cc1cc(NC(=O)c2ccc(NS(=O)(=O)[C@H]3CCOC3)cc2N2CCC3(CC2)CC3)nc(N2CCC(F)(F)CC2)n1 [Example 11-72, (S)-N-(2-(4,4-Difluoropiperidin-1-yl)-6-methylpyrimidin-4-yl)-2-(6-azaspiro[2.5]octan-6-yl)-4-((tetrahydrofuran)-3-sulfonamido)benzamide] | – |
| 324 nM | Cc1cc(NC(=O)c2ccc(NS(=O)(=O)C3([C@@H](C)O)CC3)cc2N2CCC3(CC2)CC3)nc(N2CCC(F)(F)CC2)n1 [Example 6-31-1, (R)-N-(2-(4,4-Difluoropiperidin-1-yl)-6-methylpyrimidin-4-yl)-4-((1-(1-hydroxyethyl)cyclopropane)-1-sulfonamido)-2-(6-azaspiro[2.5]octan-6-yl)benzamide] | – |
| 107 nM | Cc1cc(NC(=O)c2ccc(NS(=O)(=O)CCCO)cc2N2CCC3(CC2)CC3)nc(N2CCO[C@H](C)C2)n1 [Example 6-8, (R)-4-((3-Hydroxypropyl)sulfonamido)-N-(6-methyl-2-(2-methylmorpholino)pyrimidin-4-yl)-2-(6-azaspiro[2.5]octan-6-yl)benzamide] | – |
| 95 nM | Cc1cc(NC(=O)c2ccc(NS(=O)(=O)CCO)cc2N2CCC3(CC2)CC3)nc(N2[C@H](C)COC[C@@H]2C)n1 [Example 11-48, N-(2-((3S,5R)-3,5-Dimethylmorpholino)-6-methylpyrimidin-4-yl)-4-((2-hydroxyethyl)sulfonamido)-2-(6-azaspiro[2.5]octan-6-yl)benzamide] | – |
| 95 nM | Cc1cc(NC(=O)c2ccc(NS(=O)(=O)CCO)cc2N2CCC3(CC2)CC3)nc(N2CCOC3(CC3)C2)n1 [Example 11-47, 4-((2-Hydroxyethyl)sulfonamido)-N-(6-methyl-2-(4-oxa-7-azaspiro[2.5]octan-7-yl)pyrimidin-4-yl)-2-(6-azaspiro[2.5]octan-6-yl)benzamide] | – |
| 193 nM | Cc1cc(NC(=O)c2ccc(NS(=O)(=O)CCO)cc2N2CCC3(CC2)CC3)nc(N2CC3C[C@]3(O)C2)n1 (stereo partly drawn) [Example 11-32, N-(2-((1R)-1-Hydroxy-3-azabicyclo[3.1.0]hexan-3-yl)-6-methylpyrimidin-4-yl)-4-((2-hydroxyethyl)sulfonamido)-2-(6-azaspiro[2.5]octan-6-yl)benzamide] | – |
| 133 nM | Cc1cc(NC(=O)c2ccc(S(=O)(=O)NCCO)cc2N2CCC3(CC2)CC3)nc(N2CC(F)(F)C2)n1 [Example 17-5, N-(2-(3,3-Difluoroazetidin-1-yl)-6-methylpyrimidin-4-yl)-4-(N-(2-hydroxyethyl)sulfamoyl)-2-(6-azaspiro[2.5]octan-6-yl)benzamide] | – |
